What is called CC50 is the concentration at which the toxic effect on the cells reaches its halfway point. Low readings indicate harm at low concentration, high ones better tolerance by the cells. What is called pIC50 is the negative decadic logarithm of the IC50, by convention in mol/L. A lower pIC50 goes with a high IC50.

The subject of series [1] is HIV-1. The note with it: TC50/IC50 in human PBMCs.
Protocol: (§1) R-flurbiprofen was supplied in powder form from Catalytica Pharmaceutical Inc., Greenville, N.C. and was solubilized in DMSO to yield a 200 mM stock solution. For these studies, the compound was tested at a high-test concentration of 1000 μM along with eight serial half-logarithmic dilutions (1000 μM down to 0.01 μM). AZT was used as a positive control antiviral compound.
(§2) Fresh human blood was obtained commercially from Interstate Blood Bank, Inc. (Memphis, Tenn.). […] The laboratory-adapted HIV-1IIIB strain was propagated and tittered in fresh human PBMCs; pre-titered aliquots of HIV-1ROJO and Hiv-1IIIB were removed from the freezer (−80° C.) and thawed rapidly to room temperature in a biological safety cabinet immediately before use. Phytohemagglutinin (PHA-P) was obtained from Sigma (St. Louis, Mo.) and recombinant IL-2 was obtained from Amgen (San Francisco, Calif.).
(§3) Fresh human PBMCs were isolated from screened donors, seronegative for HIV and HBV. Leukophoresed blood was diluted 1:1 with Dulbecco's phosphate buffered saline (PBS), layered over 14 mL of Ficoll-Hypaque density gradient in a 50 mL centrifuge tube and then centrifuged for 30 minutes at 600×g. Banded PBMCs were aspirated from the resulting interface and subsequently washed 2× with PBS by low speed centrifugation. After the final wash, cells were enumerated by trypan blue exclusion and re-suspended at 1×10^7 cells/mL in RPMI 1640 supplemented with 15% Fetal Bovine Serum (FBS), 2 mM L-glutamine, 4 μg/mL PHA-P. The cells were allowed to incubate for 48-72 hours at 37° C. After incubation, PBMCs were centrifuged and reset in RPMI 1640 with 15% FBS, 2 mM L-glutamine, 100 U/ml penicillin, 100 μg/mL streptomycin, 10 μg/mL gentamycin, and 20 U/mL recombinant human IL-2. PBMCs were maintained in this medium at a concentration of 1-2×10^6 cells/mL with biweekly medium changes until used in the assay protocol.
(§4) For the standard PBMC assay, PHA-P stimulated cells from at least two normal donors were pooled, diluted in fresh medium to a final concentration of 1×10^6 cells/mL, and plated in the interior wells of 96 well round bottom microplate at 50 μL/well (5×10^4 cells/well). Test drug dilutions were prepared at a 2× concentration in microtiter tubes and 100 μL of each concentration was placed in appropriate wells in a standard format. 50 μL of a predetermined dilution of virus stock was placed in each test well (final MOI ≈0.1). Wells with cells and virus alone were used for virus control. Separate plates were prepared identically without virus for drug cytotoxicity studies using an XTT assay system. The PBMC cultures were maintained for seven days following infection, at which time cell-free supernate samples were collected and assayed for reverse transcriptase activity as described below. […]
A further series in a line: in vitro. In kind it is cell-based. Conditions: human. The procedure: At assay termination the assay plates were stained with the soluble tetrazolium-based dye MTS (CellTiter Reagent, Promega) to determine cell viability and quantify compound toxicity. MTS is metabolized by the mitochondria enzymes of metabolically active cells to yield a soluble formazan product, allowing the rapid quantitative analysis cell viability and compound cytotoxicity. […] At termination of the assay, 20 μl of MTS reagent was added per well. The wells were incubated overnight for the HIV cytoprotection assay at 37° C. The incubation intervals were chosen based on empirically determined times for optimal dye reduction in each cell type. Adhesive plate sealers were used in place of the lids, the sealed plate was inverted several times to mix the soluble formazan product and the plate was read spectrophotometrically at 490 nm with a Molecular Devices Vmax plate reader.

For series [2], the system named is HIV-1. Nature of the series: microbe, parasite or virus in culture. The note with it: Human immunodeficiency virus 1, PBMC, 168 h.
Protocol: as §1, §2, §3, §4

pIC50: −log10 of the molar value.

On to `CC(C(=O)O)c1ccc(-c2ccccc2)c(F)c1` (stereo not drawn) [R-flurbiprofen, 3-fluoro-4-phenylhydratropic acid], for which the “Therapeutic Index” value with HIV-1 [1] was determined as 3.1. It took 731 µM to reach half-maximal cytotoxicity in the series “in vitro” (CC50 at 7 days). Besides, the pIC50 with HIV-1 [2] is 3.62.
Turning to `Cc1cn([C@H]2C[C@H](N=[N+]=[N-])[C@@H](CO)O2)c(=O)[nH]c1=O` [AZT, 3′-Azido-3′-deoxythymidine], the “Therapeutic Index” value in the series with HIV-1 [1] was above 400.00. This molecule also gave a CC50 at 7 days in the series “in vitro” above 4 µM. Besides, the pIC50 in the series with HIV-1 [2] was 8.00.

(Values after US20030027867A1, “Use of R-NSAID compounds for anti-HIV treatment” (Myriad Genetics, Incorporated, priority 2001, published 2003).)
